Data published in the supplement of paper PMC10949913.
“And” between values parts separate entries of the source, which are not always exact repeats. Identical values can stand only once.

Tests used:
Details in all cases: 48 h
CU-ACC1 [1] = experiment: AC50 viability; higher = less potent
Outline: (§1)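 Three adrenocortical carcinoma cell lines were plated in 1,536-well plates at 500–1,000 cells/well in 5 µL medium, and 23 nL of each library compound was added at 11 concentrations. After 48 h, CellTiter-Glo was applied for 15 minutes at room temperature before luminescence was read. Each plate's signals were normalised to vehicle and empty-well controls. AC50 and area under the curve were taken from fitted concentration-response curves, with only inhibitory or non-responding curve classes retained.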

CU-ACC2 [2] = experiment: AC50 viability; higher = less potent
Outline: as §1

NCI-H295R [3] = experiment: AC50 viability; higher = less potent
Outline: as §1

CU-ACC1 [4] = experiment: area under concentration-response curve (viability) (AUC (a.u.)); higher = less active
Outline: as §1

CU-ACC2 [5] = experiment: as above
Outline: as §1

NCI-H295R [6] = experiment: as above
Outline: as §1

Row | SMILES | AC50 viability (CU-ACC1 [1]) [µM] | AC50 viability (CU-ACC2 [2]) [µM] | AC50 viability (NCI-H295R [3]) [µM] | area under concentration-response curve (CU-ACC1 [4]) | area under concentration-response curve (CU-ACC2 [5]) | area under concentration-response curve (NCI-H295R [6])
1 | CCc1ccc(OCc2ccccc2C(=O)Nc2ccc3nc(C)cc(N)c3c2)cc1 | 10.5 | 6.61 | 8.33 | 342 | 513 | 482
2 | COc1cc(Nc2c(C#N)cnc3cc(OCCCN4CCN(C)CC4)c(OC)cc23)c(Cl)cc1Cl | 5.9 | 8.33 | 7.42 | 412 | 451 | 430
3 | c1ccc(Cn2c(-c3ccc(OCC(C4CCNCC4)n4c(-c5ccccc5)nc5ccccc54)cc3)nc3ccccc32)cc1 (centres undefined) | 11.8 | 11.8 | 9.34 | 387 | 391 | 363
4 | COc1ccc(CNC(=O)Nc2ncc([N+](=O)[O-])s2)cc1 | 29.5 | 18.6 | 23.5 | 394 | 400 | 410
5 | CC[C@@]1(O)C(=O)OCc2c1cc1n(c2=O)Cc2cc3c(CN(C)C)c(O)ccc3nc2-1.Cl | 16.6 | 16.6 | – | 428 | 483 | 488
6 | C=C1/C(=C\C=C2/CCC[C@]3(C)[C@@H]([C@H](C)CCCC(C)(C)O)CC[C@@H]23)C[C@@H](O)C[C@@H]1O | 16.6 | 14.8 | – | 408 and 314 | 329 and 416 | 364
7 | CC1=C(/C=C/C(C)=C/C=C/C(C)=C/C(=O)Nc2ccc(O)cc2)C(C)(C)CCC1 | 0.235 | 0.295 | – | 232 | 170 | 179
8 | CN1C(=O)C(=C/2N(C(=O)N(C3CC3)C(=O)C2=C1/NC4=CC=C(I)C=C4F)C5=CC=CC(=C5)NC(C)=O)\C | 0.742 | 0.0661 | – | 305 | 372 | 408
9 | CCC(=C/[C@H](C)C/C=C/C(C)=C/[C@@H](C)C(=O)[C@@H](C)[C@H](O)[C@@H](C)C/C(C)=C/C(=O)O)/C=C/[C@@H]1OC(=O)C=C[C@@H]1C | 0.00105 | 13.2 | – | 230 | 344 | 333
10 | NCCCCNCCCN | 16.6 | 33.2 | – | 312 | 422 | 107
11 | C[C@@H]\1CC(=O)N\N=C1C2=CC=C(NN=C(C#N)C#N)C=C2 | 11.8 | 16.6 | – | 375 | 425 | 363
12 | CN1\N=C(N)/C2=C[N]([C@@H]3O[C@H](CO[P](O)(O)=O)[C@@H](O)[C@H]3O)C4=C2C1=NC=N4 | 11.8 | 4.68 | – | 429 | 464 | 493
13 | CN1C(=O)/C(=C(NC2=CC=C(I)C=C2F)\C3=C1\N=C/N(C[C@@H](O)CO)C3=O)F | 8.33 | 11.8 | – | 431 | 497 | 534
14 | O=C(N[C@@H](c1ccccc1)[C@@H]1CCCCN1)c1cccc(C(F)(F)F)c1Cl | 10.5 | 33.2 | – | 371 | 454 | 212
15 | CN(C)C1CCN(C(=O)c2ccc(NC(=O)Nc3ccc(-c4nc(N5CCOCC5)nc(N5CCOCC5)n4)cc3)cc2)CC1 | 2.35 | 4.17 | – | 411 | 345 | 485
16 | COC1=CC=C(C=C1)C/2=C/OC3=C(C(=CC(=C3)O)O)C2=O | 0.0661 | 0.295 | – | 267 | 164 | 208
17 | Cc1c(NC(=O)c2cc(C(N)=O)nc3cc(F)ccc23)c(C(F)(F)F)nn1Cc1ccc(C#N)cc1 | 1.66 | 10.5 | – | 460 | 443 | 462
18 | Cn1c(CCCCCCC(=O)NO)nc2cc(N(CCCl)CCCl)ccc21 | 10.5 | 5.9 | – | 439 | 479 | 497
19 | O=C(CCCCCCC(=O)Nc1ccc([C@H]2O[C@@H](CSc3nc(-c4ccccc4)c(-c4ccccc4)o3)C[C@@H](c3ccc(CO)cc3)O2)cc1)NO | 2.7 | 3.4 | – | 488 | 573 | 492
20 | CCCNC(=O)[C@H]1O[C@@H]1C(=O)N[C@H](C(=O)N1CCC[C@H]1C(=O)OC)C(C)CC (some centres undefined) | 16.6 | 18.6 | – | 449 | 504 | 494
21 | c1cc(N[C@@H]2CCNC2)nc(-c2cnc3ccc(-c4cn[nH]c4)cn23)c1 | 0.00662 | 41.7 | – | 331 | 380 | 409
22 | CN1\C=N/C2=CC=C(NC3=CC(=CC=C3C)NC(=O)C4=CC(=CC=C4)C(C)(C)C#N)C=C2C1=O | 0.0934 | 8.33 | – | 445 | 499 | 518
23 | CC[C@@]1(O)C(=O)OCC/2=C1/C=C3\N(CC4=CC5=CC(=CC=C5N=C34)O)C2=O | 2.09 | 0.742 | – | 271 | 436 | 518
24 | O=C1[C@H](Cc2ccc(O)cc2)N2C(=O)CCN(C(=O)NCc3ccccc3)[C@H]2CN1Cc1cccc2ccccc12 | 11.8 | 4.68 | – | 531 | 554 | 496
